These results are taken from patent publication US20040009921A1, “Methods and compositions for the treatment of cancer” (Allergan, Inc., priority 2002, published 2004).

For experiment [1], the system named is β-catenin mRNA. The experiment in a line: Northern blotting of β-catenin mRNA in RBC cells. The format is cell-based, human. As to conditions: RBC cells treated overnight (17 hours). As to the method: (§1) (A) Western blotting analysis of HEK293 cells transfected with a combination of expression vectors for LacZ (2 μg), V5-tagged β-catenin(4 μg), and Flag-tagged RXRα (2 μg) as indicated below the gels. […] RXRα protein was measured using an HRP-conjugated mouse monoclonal antibody against the Flag tag. (B) Western blotting analysis of stable cell line RBC that overexpresses both β-catenin and RXRα. […] (C) Western blotting analysis of stable cell line CAT that overexpresses only β-catenin. […] Endogenous and overexpressed β-catenin were detected using a rabbit polyclonal antibody as indicated by “Total” whereas overexpressed β-catenin was analyzed using a mouse monoclonal antibody against the V5 tag. Endogenous and overexpressed RXRα were detected by a rabbit polyclonal antibody against RXRα, whereas overexpressed RXRα was determined by an HRP-conjugated mouse monoclonal antibody against the Flag tag. (D) Western blotting analysis of HEK293 cells transfected with a fixed amount of β-catenin (4 μg) plus an increasing amount of RXRα as indicated at the top. […] (E) Western blotting analysis of HEK293, CV-1, and Hela cells transfected with 2 μg of RXRα and 4 μg of wild type or mutant β-catenin. α. […] (F) Northern blotting analysis of RBC cells using β-catenin as a probe.

For experiment [2], the target named is T1, RARα (Homo sapiens, UniProt P10276).
T1 construct: expressed in transfected cells; host or cells: HEK293
T1 sequence (P10276 1-462): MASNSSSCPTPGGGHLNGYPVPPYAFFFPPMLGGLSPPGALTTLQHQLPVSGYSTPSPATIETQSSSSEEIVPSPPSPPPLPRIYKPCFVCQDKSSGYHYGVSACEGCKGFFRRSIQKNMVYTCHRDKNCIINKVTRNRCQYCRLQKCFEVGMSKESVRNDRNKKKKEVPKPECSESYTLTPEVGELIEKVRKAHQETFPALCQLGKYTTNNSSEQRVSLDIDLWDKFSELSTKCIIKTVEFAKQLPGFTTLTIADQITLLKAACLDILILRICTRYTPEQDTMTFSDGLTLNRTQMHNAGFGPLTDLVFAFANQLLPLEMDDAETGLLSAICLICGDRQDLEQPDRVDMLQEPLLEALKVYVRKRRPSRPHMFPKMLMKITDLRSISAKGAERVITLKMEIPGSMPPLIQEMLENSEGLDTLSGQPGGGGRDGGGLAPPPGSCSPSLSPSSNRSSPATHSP
Nature of the experiment: Western blotting of RAR protein in transfected HEK293 cells. The format is cell-based. As to conditions: HEK293 co-expressing RXRα with RARα. On the technique in general: In western blotting, separated proteins are transferred to a membrane and probed.
Description: HEK293 cells were seeded at a density of 2×10 per dish were seeded into 100-mm dishes and cultured overnight in DMEM containing 10% FBS. Cells were transfected with 1-4 μg of various cDNA or parental expression vectors (8 μg of DNA in total) using Lipofectamine®. Five hours after transfection, cells were fed with fresh culture media DMEM containing 10% charcoal-treated FBS with vehicle DMSO or retinoids prepared in DMSO. […]
Total cell lysates were homogenized by passing through a QIAshredder® (Qiagen) and cleared from insoluble materials by centriftigation at 12,000 g. Protein concentration was determined using a Bradford total protein assay kit (Bio-Rad). […]

The target in experiment [3] is T2, RXRα (Homo sapiens, UniProt P19793).
T2 construct: The RXRα coding region was amplified from this clone by PCR; expressed in transfected cells; host or cells: HEK293 (transient; CAT transfected with RXRα)
T2 sequence (P19793 1-462): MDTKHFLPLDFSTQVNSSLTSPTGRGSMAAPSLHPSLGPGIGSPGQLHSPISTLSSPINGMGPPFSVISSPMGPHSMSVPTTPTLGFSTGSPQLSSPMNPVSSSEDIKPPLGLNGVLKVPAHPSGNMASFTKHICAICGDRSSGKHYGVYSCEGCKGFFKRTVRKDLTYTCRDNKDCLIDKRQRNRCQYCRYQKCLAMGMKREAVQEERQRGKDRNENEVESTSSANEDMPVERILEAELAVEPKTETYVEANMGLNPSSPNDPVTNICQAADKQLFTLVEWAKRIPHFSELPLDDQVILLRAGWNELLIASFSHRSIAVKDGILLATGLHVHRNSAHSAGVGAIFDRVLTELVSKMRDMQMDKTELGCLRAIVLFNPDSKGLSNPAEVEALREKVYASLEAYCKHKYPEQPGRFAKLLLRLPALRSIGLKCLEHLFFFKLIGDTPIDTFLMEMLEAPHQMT
Nature of the experiment: Western blotting of RXRα protein in HEK293 cells and stable lines. Type of experiment: cell-based. As to the method: as §1
FIG. 4 Receptor and ligand specificity in degradation of β-catenin by retinoid receptors. HEK293 cells transfected with expression vectors for β-catenin (4 μg) and RXRs (2 μg) or RARs (2 μg) and treated with ligands at concentrations indicated at the top of each gel. Protein levels were detected by Western blotting as shown in this figure. β-catenin and RARs were detected by HRP-conjugated antibodies against their V5 tag. RXRs were detected by HRP-conjugated antibodies against their Flag tag. […] In this experiment, the amount of expression vectors for RXRα and RARs used in transfection was 1 μg.
HEK293 cells were seeded at a density of […] per dish were seeded into 100-mm dishes and cultured overnight in DMEM containing 10% FBS. Cells were transfected with 1-4 μg of various cDNA or parental expression vectors (8 μg of DNA in total) using Lipofectamine®. Five hours after transfection, cells were fed with fresh culture media DMEM containing 10% charcoal-treated FBS with vehicle DMSO or retinoids prepared in DMSO. After a given time of treatment, cells were harvested and lysed in a buffer containing 1% Nonidet® P-40, 30 mM Tris-HCl (pH7.4), 0.5 mM EDTA (pH 8.0), 150 mM NaCl, 10% glycerol, 1 mM sodium orthovanadate, 40 mM NaF, 0.5 mM phenylmethylsulfonyl fluoride (PMSF) and a cocktail of protease inhibitors (Merck).
Total cell lysates were homogenized by passing through a QIAshredder® (Qiagen) and cleared from insoluble materials by centriftigation at 12,000 g. Protein concentration was determined using a Bradford total protein assay kit (Bio-Rad). Total cell lysates were electrophoresed using a 4-12% SDS-PAGE gradient gel and transferred to either nitrocellulose or PVDF filter membranes. The membranes were blocked with 10% non-fat milk reconstituted from dairy milk powder in phosphate-buffered saline (PBS) containing 0.1% Tween®-20 (PBST). The membranes were incubated with primary antibodies at room temperature for 2 hours or at 4° C. for overnight. After the removal of unbound antibodies, membranes were incubated with horseradish peroxidase-conjugated secondary antibodies for one hour at room temperature and washed five times with PBST.

As for `CC(/C=C/[C@@H]1C[C@]1(C)c1ccc2c(c1)C(C)(C)CCC2(C)C)=C\C(=O)O` [AGN 4204], the “β-catenin mRNA level” value in experiment [1] is “no effects”. The “degradation of RARα” value in experiment [2] is reported as “RXR-ligand-dependent degradation”. Further, the “endogenous RXRα protein” value in experiment [3] (CAT cells, 0.1 μM, 17 hours) was “a decrease of the endogenous RXRα was observed”. Also, the “amount of RXRα protein” value in experiment [3] (HEK293, independent of β-catenin, 0.1 μM) is on record as “a reduction inn the amount of RXRα”. The “degradation of RXRα” value in experiment [3] (HEK293 co-expressing RXRα with RARα) is given as “RXR-ligand-dependent degradation”. For the same compound, in experiment [3] (HEK293 transfected with β-catenin and RXRα, 17 hours), the “concentration effective in inducing degradation of RXRα” value amounted to 1 nM. Also, in experiment [3] (RBC cells, 0.1 μM), the “time at which degradation of RXRα was first detected” value stood at 1 h.
